Experimental data taken from ChEMBL document CHEMBL5729320, “Indoleamine-2,3-dioxygenase inhibitor, the preparative method and the use thereof” (2022).

Molecular target: Indoleamine 2,3-dioxygenase 1 (Homo sapiens, UniProt P14902)
Test: Inhibitory Activity Assay: The tested compounds and the reference compounds are dissolved in DMSO to prepare a high concentration of storage solution. The stock solution of reference compound was diluted with DMSO to prepare a 100× solution. In the first column of the working plate, 8 μL above tested compounds and 8 μL 100× reference compound were respectively added as the highest concentration, and then the highest concentrations were subjected to three times dilution to obtain 11 concentrations and prepare 100× solution. 0.5 μL solution was transferred from the above plate to the detection plate. To each well was added 0.5 μL 100× compound solution. For HPE and ZPE control wells, 0.5 μL 100% DMSO was added.25 μL 2×IDO1 (His-tag) enzyme solution (containing L-ascorbic acid, methylene blue, and catalase) was added to each well. 25 μL reaction solution without IDO1 (His-tag) enzyme was added into HPE control well. The test plate was centrifugated at 1000 rpm for 1 minute to mix well. Then, the test plate was incubated at room temperature for 30 minutes. 25 μL above 2× substrate (L-tryptophan) solution was added to each well. The test plate was centrifugated at 1000 rpm for 1 minute to mix well. The detection plate was placed on ELISA (SpectraMax M5e), the temperature was set at 25° C., and the absorbance (OD value) was measured at 320 nm every 10 minutes till 60 minutes.

Indoleamine 2,3-dioxygenase 1, sequence (P14902 whole entry): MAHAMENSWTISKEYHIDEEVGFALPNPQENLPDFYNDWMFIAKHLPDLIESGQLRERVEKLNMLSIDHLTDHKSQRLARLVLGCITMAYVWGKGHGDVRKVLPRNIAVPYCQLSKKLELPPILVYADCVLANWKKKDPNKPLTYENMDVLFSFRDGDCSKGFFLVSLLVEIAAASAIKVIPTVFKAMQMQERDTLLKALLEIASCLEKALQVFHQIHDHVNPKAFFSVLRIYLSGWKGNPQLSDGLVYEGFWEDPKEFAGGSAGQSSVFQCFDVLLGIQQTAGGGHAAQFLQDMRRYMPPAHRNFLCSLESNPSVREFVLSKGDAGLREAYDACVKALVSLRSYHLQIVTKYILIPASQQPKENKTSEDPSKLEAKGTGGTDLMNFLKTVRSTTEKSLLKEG

IC50: 107 nM
Compound: NS(=O)(=O)N1CCC(CSc2nonc2C(=NO)Nc2ccc(F)c(Br)c2)C1 (stereo unspecified)
